Activity calls are given as the source filed them. The calls are words filed in the database; no cut-off is given here. Residues, ends and D or L forms follow the SMILES beside them. *: point of attachment. S(CH2)2OCO2(CPT-20-yl) = CC[C@@]1(OC(=O)OCCS*)C(=O)OCc2c1cc1n(c2=O)Cc2cc3ccccc3nc2-1
Key:
SK-BR-3 [1] = experiment: Induction of apoptosis in human SK-BR-3 cells assessed as live cells at 1 uM incubated for 24 hrs by Annexin V-FITC/PI staining based flow cytometry analysis (Rvb= 89.4%); assay type: functional
SK-BR-3 [2] = experiment: Induction of apoptosis in human SK-BR-3 cells assessed as early apoptotic cells at 1 uM incubated for 24 hrs by Annexin V-FITC/PI staining based flow cytometry analysis (Rvb= 4.37%); assay type: functional
SK-BR-3 [3] = experiment: Induction of apoptosis in human SK-BR-3 cells assessed as early apoptotic cells at 2 uM incubated for 24 hrs by Annexin V-FITC/PI staining based flow cytometry analysis (Rvb= 4.37%); assay type: functional
SK-BR-3 [4] = experiment: Induction of apoptosis in human SK-BR-3 cells assessed as dead cells at 2 uM incubated for 24 hrs by Annexin V-FITC/PI staining based flow cytometry analysis (Rvb= 1.21%); assay type: functional
SK-BR-3 [5] = experiment: Induction of cell cycle arrest in human SK-BR-3 cells assessed as accumulation of cells at S phase at 2 uM incubated for 24 hrs by flow cytometry analysis (reference value: 23%); assay type: functional
[6] = molecular target: T1, DNA topoisomerase 1 (Homo sapiens) (UniProt P11387); experiment: Inhibition of topoisomerase 1 (unknown origin) assessed as relaxation of supercoiled plasmid pBR322 DNA at 10 uM preincubated for 20 mins followed by pBR322 DNA addition and measured after 30 mins by agarose gel electrophoresis analysis; conditions: time 50.0 min
T1 sequence (whole entry): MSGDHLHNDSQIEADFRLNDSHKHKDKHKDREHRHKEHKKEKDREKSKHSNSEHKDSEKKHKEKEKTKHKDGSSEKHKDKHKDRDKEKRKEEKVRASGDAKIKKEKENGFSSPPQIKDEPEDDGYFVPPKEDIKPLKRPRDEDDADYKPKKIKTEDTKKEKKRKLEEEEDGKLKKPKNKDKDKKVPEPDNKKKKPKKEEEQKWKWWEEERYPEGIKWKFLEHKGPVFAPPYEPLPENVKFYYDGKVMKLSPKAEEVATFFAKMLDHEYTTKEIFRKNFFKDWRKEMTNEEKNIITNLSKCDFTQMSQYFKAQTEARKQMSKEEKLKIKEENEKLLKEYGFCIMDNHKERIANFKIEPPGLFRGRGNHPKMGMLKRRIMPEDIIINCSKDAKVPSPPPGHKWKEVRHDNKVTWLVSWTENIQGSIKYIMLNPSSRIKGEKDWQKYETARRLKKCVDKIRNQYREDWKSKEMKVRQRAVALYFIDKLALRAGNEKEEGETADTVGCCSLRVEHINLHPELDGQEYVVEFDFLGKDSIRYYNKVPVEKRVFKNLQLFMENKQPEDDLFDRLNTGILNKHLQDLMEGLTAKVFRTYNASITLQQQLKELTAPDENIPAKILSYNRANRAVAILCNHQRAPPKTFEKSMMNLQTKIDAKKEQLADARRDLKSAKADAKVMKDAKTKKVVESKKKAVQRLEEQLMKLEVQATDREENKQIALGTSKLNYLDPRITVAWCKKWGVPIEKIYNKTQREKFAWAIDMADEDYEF

[7] = molecular target: Epidermal growth factor receptor and ErbB2 (HER1 and HER2) (Homo sapiens) (UniProt P04626+P00533); experiment: Inhibition of EGFR/HER2 heterodimerization in human SK-BR-3 cells at 10 uM preincubated for 4 hrs followed by EGF addition for 20 mins by immunoprecipitation analysis; assay type: cell-based; conditions: time 260.0 min
SK-BR-3 [8] = experiment: Antitumor activity against human SK-BR-3 cells xenografted in nude mouse assessed as reduction in tumor growth at 8 umol/kg, iv administered every 3 days for 14 days and measured every 2 days; assay type: functional, organism-based; conditions: dose 8.0 µmol/kg, time 14.0 day
[9] = […] in nude mouse xenografted with human SK-BR-3 cells assessed as effect on alanine aminotransferase level at 8 micromol/kg, iv administered every 3 days for 14 days; assay type: organism-based; conditions: in vivo, 336 h, dose 8 µmol/kg, time 14 day
[10] = Toxicity in nude mouse xenografted with human SK-BR-3 cells assessed as effect on total protein level at 8 micromol/kg, iv administered every 3 days for 14 days; assay type: organism-based; conditions: in vivo, 336 h, dose 8 µmol/kg, time 14 day
[11] = Toxicity in nude mouse xenografted with human SK-BR-3 cells assessed as effect on albumin level at 8 micromol/kg, iv administered every 3 days for 14 days; assay type: organism-based; conditions: in vivo, 336 h, dose 8 µmol/kg, time 14 day
[12] = Toxicity in nude mouse xenografted with human SK-BR-3 cells assessed as spleen damage at 8 micromol/kg, iv administered every 3 days for 14 days by H and E staining based analysis; assay type: organism-based; conditions: in vivo, 336 h, dose 8 µmol/kg, time 14 day
[13] = Hemolytic activity in rat erythrocytes at 3.125 to 100 uM by microplate reader analysis relative to control; assay type: toxicity, cell-based, Erythrocyte; conditions: dose 3.125-100 µM, read-out: Activity

| SMILES | Activity (SK-BR-3 [1]) [%] | Activity (SK-BR-3 [2]) [%] | Activity (SK-BR-3 [3]) [%] | Activity (SK-BR-3 [4]) [%] | Activity (SK-BR-3 [5]) [%] | inhibition [6] | inhibition [7] | Activity (SK-BR-3 [8]) | Activity [9] | Activity [10] | Activity [11] | Activity [12] | hemolysis at 100 µM [13] [%] |
| --- | --- | --- | --- | --- | --- | --- | --- | --- | --- | --- | --- | --- | --- |
| CC[C@H](C)[C@H](NC(=O)[C@@H](N)CCCNC(=N)N)C(=O)N[C@@H](CCCCN)C(=O)N1CCC[C@H]1C(=O)N[C@@H](CCCNC(=N)N)C(=O)N[C@@H](CCCCN)C(=O)NCC(=O)N[C@@H](Cc1ccc(O)cc1)C(=O)N[C@H](C(=O)N[C@@H](CCCNC(=N)N)C(=O)NCC(=O)N[C@@H](CSSCCOC(=O)O[C@]1(CC)C(=O)OCc2c1cc1n(c2=O)Cc2cc3ccccc3nc2-1)C(=O)NCC(=O)N[C@@H](CSSCCOC(=O)O[C@]1(CC)C(=O)OCC2=C1C=C1c3nc4ccccc4cc3NC1C2=O)C(=O)NC(=O)C[C@H](NC(=O)CN)C(=O)N1CCC[C@H]1C(=O)N[C@@H](CC(N)=O)C(=O)N[C@@H](Cc1c[nH]c2ccccc12)C(=O)NCC(=O)N[C@@H](CCCNC(=N)N)C(=O)N[C@@H](CO)C(=O)N[C@@H](Cc1c[nH]c2ccccc12)C(=O)N[C@@H](Cc1ccc(O)cc1)C(=O)N[C@@H](CC(N)=O)C(=O)N[C@@H](CCC(N)=O)C(=O)N[C@@H](CCCNC(=N)N)C(=O)N[C@@H](Cc1ccccc1)C(=O)N[C@@H](CCCCN)C(N)=O)[C@@H](C)O (some centres undefined) | 51.2 | 39.8 | 41 | 0.28 | 49.2 | Active | Active | Active | Non-Toxic | Non-Toxic | Non-Toxic | Non-Toxic |  |
| CC[C@H](C)[C@H](NC(=O)[C@@H](N)CCCNC(=N)N)C(=O)N[C@@H](CCCCN)C(=O)N1CCC[C@H]1C(=O)N[C@@H](CCCNC(=N)N)C(=O)N[C@@H](CCCCN)C(=O)NCC(=O)N[C@@H](Cc1ccc(O)cc1)C(=O)N[C@H](C(=O)N[C@@H](CCCNC(=N)N)C(=O)NCC(=O)N[C@@H](CSSCCOC(=O)O[C@]1(CC)C(=O)OCc2c1cc1n(c2=O)Cc2cc3ccccc3nc2-1)C(=O)NCC(=O)N[C@@H](CC(N)=O)C(=O)N1CCC[C@H]1C(=O)N[C@@H](CC(N)=O)C(=O)N[C@@H](Cc1c[nH]c2ccccc12)C(=O)NCC(=O)N[C@@H](CCCNC(=N)N)C(=O)N[C@@H](CO)C(=O)N[C@@H](Cc1c[nH]c2ccccc12)C(=O)N[C@@H](Cc1ccc(O)cc1)C(=O)N[C@@H](CC(N)=O)C(=O)N[C@@H](CCC(N)=O)C(=O)N[C@@H](CCCNC(=N)N)C(=O)N[C@@H](Cc1ccccc1)C(=O)N[C@@H](CCCCN)C(N)=O)[C@@H](C)O (H-RIKPRKGYTRGC(S(CH2)2OCO2(CPT-20-yl))GNPNWGRSWYNQRFK-NH2) | 57.6 | 34.9 | 39.4 | 0.64 | 48.5 |  | Active | Active | Non-Toxic | Non-Toxic | Non-Toxic | Non-Toxic | < 10 |

— ChEMBL document CHEMBL5096235, “In Silico Exploration and Biological Evaluation of Bispecific Peptides Derived from Anti-HER2 Antibodies and Peptide-Camptothecin Conjugates for HER2-Positive Breast Cancer” (J Med Chem, 2022)
